The target in this experiment is GluA1o-γ8 (GRIA1o-CACNG8 fusion construct) (Homo sapiens (Human), UniProt P42261+Q8WXS5). As to the kind of experiment: Calcium flux assay (FLIPR), inhibition of TARP γ8 dependent AMPA receptor activity. Type of experiment: cell-based. To be noted: GluA1o-γ8 (GRIA1o-CACNG8 fusion) in HEK293 cells, calcium flux after 15 μM glutamate. The method in brief:
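Glutamate (15 μM) was added to a stable HEK293 line carrying the GluA1o–γ8 fusion, which had been preincubated with compound and calcium dye in HEPES buffer, pH 7.4. Normalized FLIPR fluorescence (no compound vs 10 μM CP465022) was fitted with four parameters; pIC50 is the midpoint's negative log.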

The source of these data is patent US11312712B2, “Azabenzimidazoles and their use as AMPA receptor modulators” (Janssen Pharmaceutica NV, priority 2015, dated 2022).

GluA1o-γ8 (GRIA1o-CACNG8 fusion construct), sequence (P42261 other isoform, or with tags, fused parts or gaps): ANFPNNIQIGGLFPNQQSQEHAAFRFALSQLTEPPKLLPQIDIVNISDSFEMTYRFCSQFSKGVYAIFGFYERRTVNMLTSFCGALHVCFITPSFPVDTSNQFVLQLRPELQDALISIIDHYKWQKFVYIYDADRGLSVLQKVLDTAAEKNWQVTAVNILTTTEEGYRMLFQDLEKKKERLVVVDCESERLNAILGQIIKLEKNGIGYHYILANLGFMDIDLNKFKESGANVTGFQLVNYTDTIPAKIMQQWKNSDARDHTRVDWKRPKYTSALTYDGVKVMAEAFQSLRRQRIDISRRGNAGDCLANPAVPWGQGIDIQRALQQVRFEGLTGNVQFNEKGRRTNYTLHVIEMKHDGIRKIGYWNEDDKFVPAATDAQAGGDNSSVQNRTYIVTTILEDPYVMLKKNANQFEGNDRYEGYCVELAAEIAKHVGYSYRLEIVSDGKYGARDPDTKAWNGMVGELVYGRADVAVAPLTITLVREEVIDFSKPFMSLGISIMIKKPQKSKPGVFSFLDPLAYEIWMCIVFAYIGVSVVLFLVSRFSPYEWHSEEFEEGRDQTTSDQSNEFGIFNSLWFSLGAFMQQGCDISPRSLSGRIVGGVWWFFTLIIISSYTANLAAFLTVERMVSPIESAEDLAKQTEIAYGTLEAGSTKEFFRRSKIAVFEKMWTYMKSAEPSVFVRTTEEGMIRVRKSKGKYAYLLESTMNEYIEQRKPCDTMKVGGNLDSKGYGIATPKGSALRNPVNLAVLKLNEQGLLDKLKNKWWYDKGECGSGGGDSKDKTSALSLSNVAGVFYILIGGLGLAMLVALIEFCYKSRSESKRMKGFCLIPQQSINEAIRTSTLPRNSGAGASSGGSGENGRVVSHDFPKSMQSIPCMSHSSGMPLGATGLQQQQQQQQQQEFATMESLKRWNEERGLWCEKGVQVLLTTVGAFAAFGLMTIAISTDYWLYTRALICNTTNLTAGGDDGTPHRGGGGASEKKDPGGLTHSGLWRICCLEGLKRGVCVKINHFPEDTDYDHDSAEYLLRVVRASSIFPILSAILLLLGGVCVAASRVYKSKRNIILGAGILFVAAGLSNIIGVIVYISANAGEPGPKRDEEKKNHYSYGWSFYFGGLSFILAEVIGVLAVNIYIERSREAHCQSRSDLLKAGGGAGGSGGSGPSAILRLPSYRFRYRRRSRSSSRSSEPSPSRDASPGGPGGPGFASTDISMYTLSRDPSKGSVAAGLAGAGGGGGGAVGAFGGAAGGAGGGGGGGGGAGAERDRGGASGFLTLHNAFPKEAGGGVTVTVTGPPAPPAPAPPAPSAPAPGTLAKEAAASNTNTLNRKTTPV

What is called IC50 is the concentration needed to halve the response being measured. Regarding `Cc1nc2ccc(C(F)F)nc2n1-c1cc(Cl)c2[nH]ncc2c1` [Example 274, 3-(7-Chloro-1H-indazol-5-yl)-5-(difluoromethyl)-2-methyl-imidazo[4,5-b]pyridine], the IC50 is 0.316 nM.

Turning to `Cc1cc(-n2c(C(F)(F)F)nc3ccc(C(F)(F)F)nc32)cc2c1NC(=O)C2` [Example 275, 5-[2,5-Bis(trifluoromethyl)imidazo[4,5-b]pyridin-3-yl]-7-methyl-indolin-2-one], the IC50 was 0.126 nM.

`Cc1cc(-n2c(C(C)(F)F)nc3ccc(C(F)(F)F)nc32)cc2c1NC(=O)C2` [Example 276, 5-[2-(1,1-Difluoroethyl)-5-(trifluoromethyl)imidazo[4,5-b]pyridin-3-yl]-7-methyl-indolin-2-one]: the IC50 is 0.2 nM.

Take `FC(F)c1nc2ccc(C(F)(F)F)nc2n1-c1cc(Cl)c2[nH]ncc2c1` [Example 277, 3-(7-Chloro-1H-indazol-5-yl)-2-(difluoromethyl)-5-(trifluoromethyl)imidazo[4,5-b]pyridine]: the IC50 was 0.0631 nM.

In the case of `Cc1ccc2nc(C(F)F)n(-c3cc(Cl)c4[nH]ncc4c3)c2n1` [Example 278, 3-(7-Chloro-1H-indazol-5-yl)-2-(difluoromethyl)-5-methyl-imidazo[4,5-b]pyridine], the IC50 is 3.16 nM.

`Fc1cnc2c(c1)nc(C(F)(F)F)n2-c1cc(Cl)c2[nH]ncc2c1` [Example 279, 3-(7-Chloro-1H-indazol-5-yl)-6-fluoro-2-(trifluoromethyl)imidazo[4,5-b]pyridine]: the IC50 is 1.26 nM.

Consider `FC(F)c1nc2ccc(C(F)(F)F)nc2n1-c1cc(Br)c2[nH]ncc2c1` [Example 280, 3-(7-Bromo-1H-indazol-5-yl)-2-(difluoromethyl)-5-(trifluoromethyl)imidazo[4,5-b]pyridine], for which the IC50 is 0.0158 nM.

On to `Cc1cc(-n2c(C(F)(F)F)nc3ccc(C(F)(F)F)nc32)cc2sc(=O)[nH]c12` [Example 281, 6-[2,5-Bis(trifluoromethyl)imidazo[4,5-b]pyridin-3-yl]-4-methyl-3H-1,3-benzothiazol-2-one], for which the IC50 was 0.0631 nM.

Turning to `O=c1[nH]c2c(Cl)cc(-n3c(C(F)(F)F)nc4ccc(C(F)(F)F)nc43)cc2s1` [Example 282, 6-[2,5-Bis(trifluoromethyl)imidazo[4,5-b]pyridin-3-yl]-4-chloro-3H-1,3-benzothiazol-2-one], the IC50 was 0.0316 nM.

Turning to `O=c1[nH]c2c(F)cc(-n3c(C(F)(F)F)nc4ccc(C(F)(F)F)nc43)cc2o1` [Example 283, 6-[2,5-Bis(trifluoromethyl)imidazo[4,5-b]pyridin-3-yl]-4-fluoro-3H-1,3-benzoxazol-2-one], the IC50 is 2.51 nM.

As to `COC(=O)c1cc(-n2c(C(F)(F)F)nc3ccc(C(F)(F)F)nc32)cc2cn[nH]c12` [Example 284, Methyl 5-[2,5-bis(trifluoromethyl)imidazo[4,5-b]pyridin-3-yl]-1H-indazole-7-carboxylate], the IC50 is 126 nM.

For `COC(=O)c1cc(-n2c(C(F)F)nc3ccc(C(F)(F)F)nc32)cc2cn[nH]c12` [Example 285, Methyl 5-[2-(difluoromethyl)-5-(trifluoromethyl)imidazo[4,5-b]pyridin-3-yl]-1H-indazole-7-carboxylate], the IC50 is 251 nM.

`Cc1cc(-n2c(C(F)F)nc3ccc(C(F)(F)F)nc32)cc2cn[nH]c12` [Example 286, 2-(Difluoromethyl)-3-(7-methyl-1H-indazol-5-yl)-5-(trifluoromethyl)imidazo[4,5-b]pyridine]: the IC50 was 0.0501 nM.

As to `Cc1cc(-n2c(C(F)F)nc3ccc(C(F)(F)F)nc32)cc2c1NC(=O)C2` [Example 287, 5-[2-(Difluoromethyl)-5-(trifluoromethyl)imidazo[4,5-b]pyridin-3-yl]-7-methyl-indolin-2-one], the 50% inhibitory concentration (IC50) was 0.158 nM.

For the compound `O=C1Cc2cc(-n3c(C(F)F)nc4ccc(C(F)(F)F)nc43)cc(F)c2N1` [Example 288, 5-[2-(Difluoromethyl)-5-(trifluoromethyl)imidazo[4,5-b]pyridin-3-yl]-7-fluoro-indolin-2-one], the IC50 was 6.31 nM.

For `Cc1cc(-n2c(C(F)(F)F)nc3ccc(C(F)(F)F)nc32)cc2[nH]ncc12` [Example 289, 3-(4-Methyl-1H-indazol-6-yl)-2,5-bis(trifluoromethyl)imidazo[4,5-b]pyridine], the IC50 was 3.98 nM.

As for `O=c1[nH]c2c(Br)cc(-n3c(C(F)(F)F)nc4ccc(C(F)(F)F)nc43)cc2o1` [Example 290, 6-[2,5-Bis(trifluoromethyl)imidazo[4,5-b]pyridin-3-yl]-4-bromo-3H-1,3-benzoxazol-2-one], the IC50 was 0.2 nM.

In the case of `FC(F)(F)c1ccc2nc(C(F)(F)F)n(-c3ccc4cn[nH]c4c3)c2n1` [Example 291, 3-(1H-Indazol-6-yl)-2,5-bis(trifluoromethyl)imidazo[4,5-b]pyridine], the IC50 was 63.1 nM.

In the case of `O=C1Cc2cc(-n3c(C(F)(F)F)nc4ccc(C(F)(F)F)nc43)cnc2N1` [Example 292, 5-[2,5-Bis(trifluoromethyl)imidazo[4,5-b]pyridin-3-yl]-1,3-dihydropyrrolo[2,3-b]pyridin-2-one], the IC50 was 7.94 nM.

On to `FC(F)(F)c1ccc2nc(C(F)(F)F)n(-c3cnc4[nH]ccc4c3)c2n1` [Example 293, 3-(1H-Pyrrolo[2,3-b]pyridin-5-yl)-2,5-bis(trifluoromethyl)imidazo[4,5-b]pyridine], for which the IC50 is 39.8 nM.

Consider `Cc1cc(-n2c(C(F)(F)F)nc3ccc(C(F)(F)F)nc32)cc2cn[nH]c12` [Example 294, 3-(7-Methyl-1H-indazol-5-yl)-2,5-bis(trifluoromethyl)imidazo[4,5-b]pyridine], for which the IC50 is 0.02 nM.

As for `N#Cc1n[nH]c2ccc(-n3c(C(F)(F)F)nc4ccc(C(F)(F)F)nc43)cc12` [Example 295, 5-[2,5-Bis(trifluoromethyl)imidazo[4,5-b]pyridin-3-yl]-1H-indazole-3-carbonitrile], the IC50 is 39.8 nM.

`Oc1n[nH]c2ccc(-n3c(C(F)F)nc4ccc(C(F)(F)F)nc43)cc12` [Example 296, 5-[2-(Difluoromethyl)-5-(trifluoromethyl)imidazo[4,5-b]pyridin-3-yl]-1H-indazol-3-ol]: the IC50 was 158 nM.

Consider `O=C1Cc2ccc(-n3c(C4CC4)nc4ccc(C(F)(F)F)nc43)cc2N1` [Example 297, 6-[2-Cyclopropyl-5-(trifluoromethyl)imidazo[4,5-b]pyridin-3-yl]indolin-2-one], for which the IC50 is 1000 nM.

In the case of `CC(C)c1nc2ccc(C(F)(F)F)nc2n1-c1ccc2[nH]nc(Br)c2c1` [Example 298, 3-(3-Bromo-1H-indazol-5-yl)-2-isopropyl-5-(trifluoromethyl)imidazo[4,5-b]pyridine], the IC50 was 79.4 nM.

`CC(C)c1nc2ccc(C(F)(F)F)nc2n1-c1cc(Cl)c2c(c1)CC(=O)N2` [Example 299, 7-Chloro-5-[2-isopropyl-5-(trifluoromethyl)imidazo[4,5-b]pyridin-3-yl]indolin-2-one]: the IC50 was 0.2 nM.

As to `CC(C)c1nc2cc(F)cnc2n1-c1cc(Cl)c2[nH]ncc2c1` [Example 300, 3-(7-Chloro-1H-indazol-5-yl)-6-fluoro-2-isopropyl-imidazo[4,5-b]pyridine], the IC50 was 2.51 nM.

In the case of `CC(C)c1nc2ccc(C(F)(F)F)nc2n1-c1cnc2c(c1)CC(=O)N2` [Example 301, 5-[2-Isopropyl-5-(trifluoromethyl)imidazo[4,5-b]pyridin-3-yl]-1,3-dihydropyrrolo[2,3-b]pyridin-2-one], the IC50 is 31.6 nM.

`CC(C)c1nc2ccc(C(F)(F)F)nc2n1-c1cnc2[nH]ncc2c1` [Example 302, 2-Isopropyl-3-(1H-pyrazolo[3,4-b]pyridin-5-yl)-5-(trifluoromethyl)imidazo[4,5-b]pyridine]: the IC50 was 39.8 nM.

Consider `CC(C)c1nc2ccc(C(F)(F)F)nc2n1-c1cnc2[nH]ccc2c1` [Example 303, 2-Isopropyl-3-(1H-pyrrolo[2,3-b]pyridin-5-yl)-5-(trifluoromethyl)imidazo[4,5-b]pyridine], for which the IC50 is 31.6 nM.

As for `C=CCc1cc(-n2c(C(F)(F)F)nc3ccc(C(F)(F)F)nc32)cc2cn[nH]c12` [Example 304, 3-(7-Allyl-1H-indazol-5-yl)-2,5-bis(trifluoromethyl)-3H-imidazo[4,5-b]pyridine], the IC50 is 63.1 nM.

In the case of `C=C(C)c1cc(-n2c(C(F)(F)F)nc3ccc(C(F)(F)F)nc32)cc2cn[nH]c12` [Example 305, 3-(7-(Prop-1-en-2-yl)-1H-indazol-5-yl)-2,5-bis(trifluoromethyl)-3H-imidazo[4,5-b]pyridine], the IC50 is 0.02 nM.

For the compound `FC(F)(F)c1ccc2ncn(-c3cc(Cl)c4[nH]ncc4c3)c2n1` [Example 306, 3-(7-Chloro-1H-indazol-5-yl)-5-(trifluoromethyl)imidazo[4,5-b]pyridine], the IC50 is 2.51 nM.

For `FC(F)(F)c1ccc2nc(C3CC3)n(-c3cc(Cl)c4[nH]ncc4c3)c2n1` [Example 307, 3-(7-Chloro-1H-indazol-5-yl)-2-cyclopropyl-5-(trifluoromethyl)imidazo[4,5-b]pyridine], the IC50 is 0.00501 nM.

In the case of `FC(F)(F)c1ccc2nc(C3CCC3)n(-c3cc(Cl)c4[nH]ncc4c3)c2n1` [Example 308, 3-(7-Chloro-1H-indazol-5-yl)-2-cyclobutyl-5-(trifluoromethyl)imidazo[4,5-b]pyridine], the IC50 is 0.00501 nM.

Regarding `Cc1cc(-n2c(C)nc3ccc(C(F)(F)F)nc32)cc2c1NC(=O)C2` [Example 309, 7-Methyl-5-[2-methyl-5-(trifluoromethyl)imidazo[4,5-b]pyridin-3-yl]indolin-2-one], the IC50 was 0.631 nM.

With `Cc1cc(-n2c(C(C)C)nc3ccc(C(F)(F)F)nc32)cc2c1NC(=O)C2` [Example 310, 5-[2-Isopropyl-5-(trifluoromethyl)imidazo[4,5-b]pyridin-3-yl]-7-methyl-indolin-2-one], the IC50 is 0.158 nM.
